For one experiment, the target named is Cathepsin D (Homo sapiens, UniProt P07339). Description: Inhibition of cathepsin D by FRET assay.
Experiment [1] is described as follows: Selectivity ratio of IC50 for BACE2 to IC50 for BACE1.
Another experiment has as its target Beta-secretase 1 (Homo sapiens, UniProt P56817). Description: Inhibition of BACE1 by FRET assay.
The target in another experiment is T1, Beta-secretase 2 (Homo sapiens, UniProt Q9Y5Z0).
T1 sequence (Q9Y5Z0 whole entry): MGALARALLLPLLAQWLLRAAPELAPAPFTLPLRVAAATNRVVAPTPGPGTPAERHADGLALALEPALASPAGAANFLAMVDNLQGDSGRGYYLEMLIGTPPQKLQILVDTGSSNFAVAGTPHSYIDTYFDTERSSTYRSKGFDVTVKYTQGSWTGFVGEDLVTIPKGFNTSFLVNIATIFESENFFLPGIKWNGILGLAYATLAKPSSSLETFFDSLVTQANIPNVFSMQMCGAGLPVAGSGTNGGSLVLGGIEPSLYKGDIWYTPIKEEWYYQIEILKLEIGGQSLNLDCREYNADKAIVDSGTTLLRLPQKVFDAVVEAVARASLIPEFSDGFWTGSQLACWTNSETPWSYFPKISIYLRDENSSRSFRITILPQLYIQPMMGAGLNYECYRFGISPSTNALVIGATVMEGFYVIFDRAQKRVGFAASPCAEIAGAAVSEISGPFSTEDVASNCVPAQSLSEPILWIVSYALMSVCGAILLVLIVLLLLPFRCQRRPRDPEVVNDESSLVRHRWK
Description: Inhibition of BACE2 by FRET assay.

The structures appear in SMILES notation. pIC50: −log10 of the molar value.

Usually pIC50 stands for the negative decadic logarithm of the IC50, by convention in mol/L. A high value points to a low IC50.

Chain of Beta-secretase 1 (P56817 whole entry): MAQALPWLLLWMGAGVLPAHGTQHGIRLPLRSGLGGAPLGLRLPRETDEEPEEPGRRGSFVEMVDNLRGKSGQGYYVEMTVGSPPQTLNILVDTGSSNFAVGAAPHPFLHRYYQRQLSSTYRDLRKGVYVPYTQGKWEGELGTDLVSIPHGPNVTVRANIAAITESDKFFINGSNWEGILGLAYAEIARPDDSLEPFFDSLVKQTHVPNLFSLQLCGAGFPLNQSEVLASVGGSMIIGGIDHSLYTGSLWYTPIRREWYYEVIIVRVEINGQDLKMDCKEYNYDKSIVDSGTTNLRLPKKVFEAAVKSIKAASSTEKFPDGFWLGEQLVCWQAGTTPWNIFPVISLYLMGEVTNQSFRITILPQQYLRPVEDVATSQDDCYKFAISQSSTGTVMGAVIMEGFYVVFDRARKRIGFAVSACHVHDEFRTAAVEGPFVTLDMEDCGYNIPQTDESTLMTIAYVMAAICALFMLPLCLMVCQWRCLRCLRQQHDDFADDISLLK
Chain of Cathepsin D (P07339 65-162 limits assumed): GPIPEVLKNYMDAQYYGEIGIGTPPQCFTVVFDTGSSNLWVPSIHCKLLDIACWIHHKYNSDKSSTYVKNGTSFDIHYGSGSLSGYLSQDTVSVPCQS
Chain of Cathepsin D (P07339 169-412 limits assumed): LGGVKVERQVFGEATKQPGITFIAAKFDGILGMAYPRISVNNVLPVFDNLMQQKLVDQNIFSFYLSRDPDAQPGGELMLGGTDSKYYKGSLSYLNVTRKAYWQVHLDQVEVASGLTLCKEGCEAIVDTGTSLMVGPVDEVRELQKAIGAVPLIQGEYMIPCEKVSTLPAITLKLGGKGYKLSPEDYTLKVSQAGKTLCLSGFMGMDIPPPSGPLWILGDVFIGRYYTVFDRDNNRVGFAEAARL

On to `CN1C(=O)C(c2ccncc2)(c2cccc(-c3cccnc3F)c2)N=C1N` (configuration not stated), for which the pIC50 against Cathepsin D is 4.76; against Beta-secretase 1, 7.52; at Beta-secretase 2, 6.00. The Ratio IC50 in experiment [1] is 33.
As to `CN1C(=O)[C@@](c2ccncc2)(c2cccc(-c3cc(F)ccc3F)c2)N=C1N`, the pIC50 against Cathepsin D was 5.26; against Beta-secretase 2 it was 7.00.
Consider `CN1C(=O)C(c2ccncc2)(c2cccc(-c3cc(F)ccc3F)c2)N=C1N` (racemic), for which the pIC50 is 5.03 against Cathepsin D and 6.92 at Beta-secretase 2.
`CN1C(=O)C(c2ccncc2)(c2cccc(-c3cccc(F)c3F)c2)N=C1N` (configuration not stated): the pIC50 was 4.88 at Cathepsin D, 7.40 on Beta-secretase 1 and 6.89 against Beta-secretase 2. Moreover, the Ratio IC50 in experiment [1] turned out to be 3.3.
For `CN1C(=O)C(c2ccncc2)(c2cccc(-c3cc(F)cc(F)c3)c2)N=C1N` (configuration not stated), in that order: 4.47, 7.22, 7.22 and 1.
Take `CN1C(=O)C(c2ccncc2)(c2cccc(-c3cccc(OC(F)(F)F)c3)c2)N=C1N` (configuration not stated): the negative logarithm of the IC50 (pIC50) on Cathepsin D was 4.85; against Beta-secretase 1, 6.60; against Beta-secretase 2, 6.85. The Ratio IC50 in experiment [1] is 0.6.
For `CN1C(=O)C(c2ccncc2)(c2cccc(-c3cccc(C#N)c3)c2)N=C1N` (configuration not stated), in that order: 4.62, 7.40, 7.40 and 1.
Turning to `CN1C(=O)C(c2ccncc2)(c2cccc(-c3ccccc3)c2)N=C1N` (configuration not stated), the Ratio IC50 in experiment [1] came out at 1.1.
For the compound `CN1C(=O)C(c2ccccc2)(c2ccncc2)N=C1N` (configuration not stated), the Ratio IC50 in experiment [1] is 0.8.
On Beta-secretase 2, `CN1C(=O)C(c2ccncc2)(c2cccc(-c3cnccn3)c2)N=C1N` (configuration not stated) showed a negative-log IC50 (pIC50) of 6.00.
Consider `CN1C(=O)C(c2ccncc2)(c2cccc(-c3ccsc3)c2)N=C1N` (configuration not stated), for which the pIC50 at Cathepsin D was 4.50; on Beta-secretase 2 it was 6.72.
`CN1C(=O)C(c2ccncc2)(c2cccc(-c3cccnc3)c2)N=C1N` (configuration not stated): the Ratio IC50 in experiment [1] was determined as 8.
As for `CN1C(=O)C(c2ccncc2)(c2cccc(-c3ccoc3)c2)N=C1N` (configuration not stated), the pIC50 was 4.33 on Cathepsin D and 6.24 on Beta-secretase 2.
The matching figures for `CN1C(=O)[C@](c2ccncc2)(c2cccc(-c3cc(F)ccc3F)c2)N=C1N`: 4.58 and 6.15.
As for `CN1C(=O)C(c2ccncc2)(c2cccc(-c3cccc(F)c3)c2)N=C1N` (configuration not stated), the pIC50 against Cathepsin D is 4.68; on Beta-secretase 1 it was 7.30; on Beta-secretase 2, 7.10. Also, in experiment [1], the Ratio IC50 turned out to be 1.6.
For `COc1cccc(-c2cccc(C3(c4ccncc4)N=C(N)N(C)C3=O)c2)c1` (configuration not stated), in that order: 4.91, 7.52, 7.70 and 0.7.
